The results in this text go back to PMC11974928 (bioRxiv, 2025).

The test system of this assay is GL261 cells. The assay is described as follows: Orthotopic GL261 allograft survival. Type of assay: in vivo, mouse. The conditions noted are these: C57BL/6, 25 mg/kg 3x weekly, compared to vehicle.

Turning to `CCN1CCN(Cc2ccc(Nc3ncc(F)c(-c4cc(F)c5nc(C)n(C(C)C)c5c4)n3)nc2)CC1` [Abemaciclib], the “overall survival of glioma-bearing mice” value is “effective”.
